± gives the standard deviation of the averaged measurements.
Columns and labels:
Assay in all cases: relative viability vs DMSO control (72 h) (fraction); higher = more viable cells
[1] = tested on: RD
Outline: (§1)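 Sarcoma cell lines were grown in 384-well plates seeded toward 80–90% confluence and exposed 24 h later to serially diluted compound. After 72 h at 37 °C and 5% CO2, with 0.1% DMSO vehicle and a 5 µM positive control on the plates, ATPLite was read. Relative viability, given as percent growth averaged over up to triplicate wells, was rescaled so that 1 is full and 0 is none.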

[2] = tested on: VA-ES-BJ
Outline: as §1

[3] = tested on: HS729
Outline: as §1

[4] = tested on: MES-SA
Outline: as §1

[5] = tested on: SK-LMS-1
Outline: as §1

COc1cc(Nc2c(C#N)cnc3cc(OCCCN4CCN(C)CC4)c(OC)cc23)c(Cl)cc1Cl [Bosutinib]
relative viability ([1]; 0.00017 µM): 1.11 ± 0.031 | relative viability ([1]; 0.00051 µM): 1.11 ± 0.032 | relative viability ([1]; 0.00152 µM): 1.12 ± 0.05 | relative viability ([1]; 0.00457 µM): 1.11 ± 0.065 | relative viability ([1]; 0.01372 µM): 1.11 ± 0.032 | relative viability ([1]; 0.04115 µM): 1.14 ± 0.045 | relative viability ([1]; 0.1235 µM): 1.15 ± 0.078 | relative viability ([1]; 0.3704 µM): 1.12 ± 0.071 | relative viability ([1]; 1.111 µM): 0.88 ± 0.045 | relative viability ([1]; 3.333 µM): 0.665 ± 0.03 | relative viability ([1]; 10 µM): 0.0202 ± 0.003 | relative viability ([2]; 0.00017 µM): 1.11 ± 0.045 | relative viability ([2]; 0.00051 µM): 1.14 ± 0.029 | relative viability ([2]; 0.00152 µM): 1.12 ± 0.014 | relative viability ([2]; 0.00457 µM): 1.12 ± 0.033 | relative viability ([2]; 0.01372 µM): 1.14 ± 0.037 | relative viability ([2]; 0.04115 µM): 1.16 ± 0.056 | relative viability ([2]; 0.1235 µM): 1.14 ± 0.045 | relative viability ([2]; 0.3704 µM): 1.03 ± 0.039 | relative viability ([2]; 1.111 µM): 0.729 ± 0.019 | relative viability ([2]; 3.333 µM): 0.545 ± 0.0093 | relative viability ([2]; 10 µM): 0.0514 ± 0.0046 | relative viability ([3]; 0.00017 µM): 1.06 ± 0.082 | relative viability ([3]; 0.00051 µM): 1.04 ± 0.08 | relative viability ([3]; 0.00152 µM): 1.1 ± 0.029 | relative viability ([3]; 0.00457 µM): 1.05 ± 0.031 | relative viability ([3]; 0.01372 µM): 1.07 ± 0.046 | relative viability ([3]; 0.04115 µM): 1.05 ± 0.041 | relative viability ([3]; 0.1235 µM): 0.978 ± 0.091 | relative viability ([3]; 0.3704 µM): 0.922 ± 0.094 | relative viability ([3]; 1.111 µM): 0.773 ± 0.038 | relative viability ([3]; 3.333 µM): 0.79 ± 0.055 | relative viability ([3]; 10 µM): 0.107 ± 0.11 | relative viability ([4]; 0.00017 µM): 1.018 ± 0.0064 | relative viability ([4]; 0.00051 µM): 0.992 ± 0.01 | relative viability ([4]; 0.00152 µM): 1.01 ± 0.036 | relative viability ([4]; 0.00457 µM): 0.979 ± 0.067 | relative viability ([4]; 0.01372 µM): 0.989 ± 0.03 | relative viability ([4]; 0.04115 µM): 0.993 ± 0.03 | relative viability ([4]; 0.1235 µM): 0.994 ± 0.011 | relative viability ([4]; 0.3704 µM): 0.926 ± 0.049 | relative viability ([4]; 1.111 µM): 0.675 ± 0.022 | relative viability ([4]; 3.333 µM): 0.432 ± 0.015 | relative viability ([4]; 10 µM): 0.228 ± 0.061 | relative viability ([5]; 0.00017 µM): 1.06 ± 0.012 | relative viability ([5]; 0.00051 µM): 1.07 ± 0.048 | relative viability ([5]; 0.00152 µM): 1.08 ± 0.031 | relative viability ([5]; 0.00457 µM): 1.07 ± 0.047 | relative viability ([5]; 0.01372 µM): 1.1 ± 0.066 | relative viability ([5]; 0.04115 µM): 1.16 ± 0.045 | relative viability ([5]; 0.1235 µM): 1.22 ± 0.058 | relative viability ([5]; 0.3704 µM): 1.24 ± 0.028 | relative viability ([5]; 1.111 µM): 1.1 ± 0.032 | relative viability ([5]; 3.333 µM): 0.873 ± 0.02 | relative viability ([5]; 10 µM): 0.0696 ± 0.0023

Cc1ccc(NC(=O)c2ccc(CN3CCN(C)CC3)cc2)cc1Nc1nccc(-c2cccnc2)n1 [Imatinib]
relative viability ([1]; 0.00017 µM): 0.964 ± 0.033 | relative viability ([1]; 0.00051 µM): 0.974 ± 0.048 | relative viability ([1]; 0.00152 µM): 0.952 ± 0.05 | relative viability ([1]; 0.00457 µM): 0.967 ± 0.035 | relative viability ([1]; 0.01372 µM): 0.976 ± 0.066 | relative viability ([1]; 0.04115 µM): 0.983 ± 0.046 | relative viability ([1]; 0.1235 µM): 0.95 ± 0.047 | relative viability ([1]; 0.3704 µM): 0.943 ± 0.021 | relative viability ([1]; 1.111 µM): 1.01 ± 0.045 | relative viability ([1]; 3.333 µM): 1 ± 0.043 | relative viability ([1]; 10 µM): 0.596 ± 0.011 | relative viability ([2]; 0.00017 µM): 1.02 ± 0.034 | relative viability ([2]; 0.00051 µM): 1.029 ± 0.0078 | relative viability ([2]; 0.00152 µM): 1.04 ± 0.014 | relative viability ([2]; 0.00457 µM): 1.024 ± 0.01 | relative viability ([2]; 0.01372 µM): 1.01 ± 0.011 | relative viability ([2]; 0.04115 µM): 1.01 ± 0.035 | relative viability ([2]; 0.1235 µM): 1.01 ± 0.017 | relative viability ([2]; 0.3704 µM): 1.02 ± 0.032 | relative viability ([2]; 1.111 µM): 1.02 ± 0.028 | relative viability ([2]; 3.333 µM): 0.9831 ± 0.0072 | relative viability ([2]; 10 µM): 0.807 ± 0.015 | relative viability ([3]; 0.00017 µM): 0.972 ± 0.055 | relative viability ([3]; 0.00051 µM): 0.996 ± 0.037 | relative viability ([3]; 0.00152 µM): 1.02 ± 0.041 | relative viability ([3]; 0.00457 µM): 0.991 ± 0.022 | relative viability ([3]; 0.01372 µM): 0.977 ± 0.034 | relative viability ([3]; 0.04115 µM): 0.985 ± 0.053 | relative viability ([3]; 0.1235 µM): 0.993 ± 0.04 | relative viability ([3]; 0.3704 µM): 0.945 ± 0.033 | relative viability ([3]; 1.111 µM): 0.917 ± 0.038 | relative viability ([3]; 3.333 µM): 0.86 ± 0.026 | relative viability ([3]; 10 µM): 0.522 ± 0.034 | relative viability ([4]; 0.00017 µM): 0.966 ± 0.036 | relative viability ([4]; 0.00051 µM): 0.988 ± 0.015 | relative viability ([4]; 0.00152 µM): 0.992 ± 0.03 | relative viability ([4]; 0.00457 µM): 0.9838 ± 0.008 | relative viability ([4]; 0.01372 µM): 0.985 ± 0.021 | relative viability ([4]; 0.04115 µM): 0.9942 ± 0.0068 | relative viability ([4]; 0.1235 µM): 0.997 ± 0.01 | relative viability ([4]; 0.3704 µM): 1.02 ± 0.012 | relative viability ([4]; 1.111 µM): 1.01 ± 0.03 | relative viability ([4]; 3.333 µM): 0.905 ± 0.036 | relative viability ([4]; 10 µM): 0.658 ± 0.033 | relative viability ([5]; 0.00017 µM): 1.02 ± 0.023 | relative viability ([5]; 0.00051 µM): 1.02 ± 0.02 | relative viability ([5]; 0.00152 µM): 1.04 ± 0.014 | relative viability ([5]; 0.00457 µM): 1.02 ± 0.08 | relative viability ([5]; 0.01372 µM): 1.06 ± 0.018 | relative viability ([5]; 0.04115 µM): 1.07 ± 0.014 | relative viability ([5]; 0.1235 µM): 1.05 ± 0.052 | relative viability ([5]; 0.3704 µM): 1.08 ± 0.024 | relative viability ([5]; 1.111 µM): 1.08 ± 0.021 | relative viability ([5]; 3.333 µM): 1.11 ± 0.058 | relative viability ([5]; 10 µM): 0.635 ± 0.039

C[C@H]1Oc2cc(cnc2N)-c2c(nn(C)c2C#N)CN(C)C(=O)c2ccc(F)cc21 [Lorlatinib]
relative viability ([1]; 0.00017 µM): 1.09 ± 0.057 | relative viability ([1]; 0.00051 µM): 1.11 ± 0.035 | relative viability ([1]; 0.00152 µM): 1.11 ± 0.064 | relative viability ([1]; 0.00457 µM): 1.09 ± 0.044 | relative viability ([1]; 0.01372 µM): 1.12 ± 0.075 | relative viability ([1]; 0.04115 µM): 1.07 ± 0.069 | relative viability ([1]; 0.1235 µM): 1.02 ± 0.054 | relative viability ([1]; 0.3704 µM): 1 ± 0.032 | relative viability ([1]; 1.111 µM): 0.948 ± 0.045 | relative viability ([1]; 3.333 µM): 0.838 ± 0.016 | relative viability ([1]; 10 µM): 0.668 ± 0.035 | relative viability ([2]; 0.00017 µM): 1.056 ± 0.0097 | relative viability ([2]; 0.00051 µM): 1.08 ± 0.013 | relative viability ([2]; 0.00152 µM): 1.05 ± 0.032 | relative viability ([2]; 0.00457 µM): 1.03 ± 0.042 | relative viability ([2]; 0.01372 µM): 1.02 ± 0.033 | relative viability ([2]; 0.04115 µM): 0.989 ± 0.041 | relative viability ([2]; 0.1235 µM): 0.989 ± 0.034 | relative viability ([2]; 0.3704 µM): 0.956 ± 0.048 | relative viability ([2]; 1.111 µM): 0.966 ± 0.048 | relative viability ([2]; 3.333 µM): 0.955 ± 0.044 | relative viability ([2]; 10 µM): 0.87 ± 0.039 | relative viability ([3]; 0.00017 µM): 1.06 ± 0.025 | relative viability ([3]; 0.00051 µM): 0.956 ± 0.017 | relative viability ([3]; 0.00152 µM): 0.897 ± 0.039 | relative viability ([3]; 0.00457 µM): 0.958 ± 0.077 | relative viability ([3]; 0.01372 µM): 0.878 ± 0.019 | relative viability ([3]; 0.04115 µM): 0.886 ± 0.024 | relative viability ([3]; 0.1235 µM): 0.829 ± 0.027 | relative viability ([3]; 0.3704 µM): 0.899 ± 0.068 | relative viability ([3]; 1.111 µM): 0.803 ± 0.089 | relative viability ([3]; 3.333 µM): 0.781 ± 0.037 | relative viability ([3]; 10 µM): 0.662 ± 0.039 | relative viability ([4]; 0.00017 µM): 0.955 ± 0.024 | relative viability ([4]; 0.00051 µM): 0.987 ± 0.037 | relative viability ([4]; 0.00152 µM): 0.943 ± 0.04 | relative viability ([4]; 0.00457 µM): 0.929 ± 0.013 | relative viability ([4]; 0.01372 µM): 0.922 ± 0.026 | relative viability ([4]; 0.04115 µM): 0.923 ± 0.033 | relative viability ([4]; 0.1235 µM): 0.911 ± 0.027 | relative viability ([4]; 0.3704 µM): 0.919 ± 0.023 | relative viability ([4]; 1.111 µM): 0.897 ± 0.026 | relative viability ([4]; 3.333 µM): 0.892 ± 0.058 | relative viability ([4]; 10 µM): 0.879 ± 0.052 | relative viability ([5]; 0.00017 µM): 1.12 ± 0.06 | relative viability ([5]; 0.00051 µM): 1.095 ± 0.0097 | relative viability ([5]; 0.00152 µM): 1.081 ± 0.0044 | relative viability ([5]; 0.00457 µM): 1.09 ± 0.057 | relative viability ([5]; 0.01372 µM): 1.1 ± 0.049 | relative viability ([5]; 0.04115 µM): 1.09 ± 0.082 | relative viability ([5]; 0.1235 µM): 1.07 ± 0.071 | relative viability ([5]; 0.3704 µM): 1.02 ± 0.038 | relative viability ([5]; 1.111 µM): 1.02 ± 0.041 | relative viability ([5]; 3.333 µM): 1 ± 0.052 | relative viability ([5]; 10 µM): 0.933 ± 0.015

Source: the supplement of paper PMC10883282
